Experimental data reported in ChEMBL document CHEMBL1201862, “PubChem BioAssay data set” (2004).
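These data come from cells grown in 96-well plates and exposed to compound for 48 hours at five concentrations. Abbreviation: GI50, concentration required for 50% inhibition of growth.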 Active and inactive are the calls of the source. No stated cut-off is given here; in the data, active = GI50 up to about 1.1 µM and inactive = higher.

What was measured:
Test in all cases: DTP human tumour cell line panel, 48 h
HL-60 = tested on: HL-60
A549 = tested on: A549
OVCAR-4 = tested on: OVCAR-4
RXF 393 = tested on: RXF 393
OVCAR-3 = tested on: OVCAR-3
SW-620 = tested on: SW-620
UACC-257 = tested on: UACC-257
786-0 = tested on: 786-0
OVCAR-8 = tested on: OVCAR-8
SK-MEL-28 = tested on: SK-MEL-28
LOX IMVI = tested on: LOX IMVI
HT-29 = tested on: HT-29
HOP-92 = tested on: HOP-92
SNB-19 = tested on: SNB-19
UO-31 = tested on: UO-31
MDA-N = tested on: MDA-N
MDA-MB-231 = tested on: MDA-MB-231
CAKI-1 = tested on: CAKI-1
UACC-62 = tested on: UACC-62
IGROV-1 = tested on: IGROV-1
SN12C = tested on: SN12C
SK-MEL-5 = tested on: SK-MEL-5
NCI-H23 = tested on: NCI-H23
M14 = tested on: M14
MCF7 = tested on: MCF7
COLO 205 = tested on: COLO 205
MOLT-4 = tested on: MOLT-4
HCC 2998 = tested on: HCC 2998
HCT-15 = tested on: HCT-15
HOP-62 = tested on: HOP-62
PC-3 = tested on: PC-3
SF-268 = tested on: SF-268
EKVX = tested on: EKVX
CCRF-CEM = tested on: CCRF-CEM
NCI-H522 = tested on: NCI-H522
ACHN = tested on: ACHN
NCI-H460 = tested on: NCI-H460
TK-10 = tested on: TK-10
U-251 = tested on: U-251
SF-295 = tested on: SF-295
HCT-116 = tested on: HCT-116
Hs-578T = tested on: Hs-578T
T47D = tested on: T47D
OVCAR-5 = tested on: OVCAR-5
SK-MEL-2 = tested on: SK-MEL-2
NCI-H226 = tested on: NCI-H226
NCI/ADR-RES = tested on: NCI/ADR-RES
BT-549 = tested on: BT-549
DU-145 = tested on: DU-145
MDA-MB-435 = tested on: MDA-MB-435
K562 = tested on: K562
Malme-3M = tested on: Malme-3M
KM12 = tested on: KM12
SF-539 = tested on: SF-539
A498 = tested on: A498
RPMI-8226 = tested on: RPMI-8226
SK-OV-3 = tested on: SK-OV-3
SNB-75 = tested on: SNB-75
SR = tested on: SR

O=C(O)CCSc1ncnc2[nH]cnc12
GI50 (HL-60): > 100 µM (inactive)
GI50 (A549): > 100 µM (inactive)
GI50 (OVCAR-4): > 100 µM (inactive)
GI50 (RXF 393): > 100 µM (inactive)
GI50 (OVCAR-3): > 100 µM (inactive)
GI50 (SW-620): > 100 µM (inactive)
GI50 (UACC-257): > 100 µM (inactive)
GI50 (786-0): > 100 µM (inactive)
GI50 (OVCAR-8): > 100 µM (inactive)
GI50 (SK-MEL-28): > 100 µM (inactive)
GI50 (LOX IMVI): > 100 µM (inactive)
GI50 (HT-29): > 100 µM (inactive)
GI50 (HOP-92): 27.1 µM (inactive)
GI50 (SNB-19): > 100 µM (inactive)
GI50 (UO-31): > 100 µM (inactive)
GI50 (MDA-N): > 100 µM (inactive)
GI50 (MDA-MB-231): > 100 µM (inactive)
GI50 (CAKI-1): > 100 µM (inactive)
GI50 (UACC-62): > 100 µM (inactive)
GI50 (IGROV-1): > 100 µM (inactive)
GI50 (SN12C): > 100 µM (inactive)
GI50 (SK-MEL-5): > 100 µM (inactive)
GI50 (NCI-H23): > 100 µM (inactive)
GI50 (M14): > 100 µM (inactive)
GI50 (MCF7): > 100 µM (inactive)
GI50 (COLO 205): > 100 µM (inactive)
GI50 (MOLT-4): > 100 µM (inactive)
GI50 (HCC 2998): > 100 µM (inactive)
GI50 (HCT-15): > 100 µM
GI50 (HOP-62): > 100 µM (inactive)
GI50 (PC-3): > 100 µM (inactive)
GI50 (SF-268): > 100 µM (inactive)
GI50 (EKVX): > 100 µM (inactive)
GI50 (CCRF-CEM): > 100 µM (inactive)
GI50 (NCI-H522): > 100 µM (inactive)
GI50 (ACHN): > 100 µM (inactive)
GI50 (NCI-H460): > 100 µM (inactive)
GI50 (TK-10): > 100 µM (inactive)
GI50 (U-251): > 100 µM (inactive)
GI50 (SF-295): > 100 µM (inactive)
GI50 (HCT-116): > 100 µM (inactive)
GI50 (Hs-578T): > 100 µM (inactive)
GI50 (T47D): > 100 µM (inactive)
GI50 (OVCAR-5): > 100 µM (inactive)
GI50 (SK-MEL-2): > 100 µM (inactive)
GI50 (NCI-H226): 64.7 µM (inactive)
GI50 (NCI/ADR-RES): > 100 µM (inactive)
GI50 (BT-549): > 100 µM (inactive)
GI50 (DU-145): > 100 µM (inactive)
GI50 (MDA-MB-435): > 100 µM (inactive)
GI50 (K562): > 100 µM (inactive)
GI50 (Malme-3M): > 100 µM (inactive)
GI50 (KM12): > 100 µM (inactive)
GI50 (SF-539): > 100 µM (inactive)
GI50 (A498): > 100 µM (inactive)
GI50 (RPMI-8226): > 100 µM (inactive)
GI50 (SK-OV-3): > 100 µM (inactive)

CC(O)C1OC(O)C2OC(C)(C)OC12 (configuration not stated)
GI50 (HL-60): > 100 µM (inactive)
GI50 (A549): > 100 µM (inactive)
GI50 (OVCAR-4): > 100 µM (inactive)
GI50 (OVCAR-3): > 100 µM (inactive)
GI50 (SW-620): > 100 µM (inactive)
GI50 (UACC-257): > 100 µM (inactive)
GI50 (786-0): > 100 µM (inactive)
GI50 (OVCAR-8): > 100 µM (inactive)
GI50 (SK-MEL-28): > 100 µM (inactive)
GI50 (LOX IMVI): > 100 µM (inactive)
GI50 (HT-29): > 100 µM (inactive)
GI50 (SNB-75): > 100 µM (inactive)
GI50 (SNB-19): > 100 µM (inactive)
GI50 (UO-31): > 100 µM (inactive)
GI50 (MDA-N): > 100 µM (inactive)
GI50 (MDA-MB-231): > 100 µM (inactive)
GI50 (CAKI-1): > 100 µM (inactive)
GI50 (UACC-62): > 100 µM (inactive)
GI50 (IGROV-1): > 100 µM (inactive)
GI50 (SN12C): > 100 µM (inactive)
GI50 (SR): > 100 µM (inactive)
GI50 (SK-MEL-5): > 100 µM (inactive)
GI50 (NCI-H23): > 100 µM (inactive)
GI50 (M14): > 100 µM (inactive)
GI50 (MCF7): > 100 µM (inactive)
GI50 (COLO 205): > 100 µM (inactive)
GI50 (MOLT-4): > 100 µM (inactive)
GI50 (HCT-15): > 100 µM
GI50 (HOP-62): > 100 µM (inactive)
GI50 (PC-3): > 100 µM (inactive)
GI50 (SF-268): > 100 µM (inactive)
GI50 (EKVX): > 100 µM (inactive)
GI50 (CCRF-CEM): > 100 µM (inactive)
GI50 (NCI-H522): > 100 µM (inactive)
GI50 (ACHN): > 100 µM (inactive)
GI50 (NCI-H460): > 100 µM (inactive)
GI50 (TK-10): > 100 µM (inactive)
GI50 (U-251): > 100 µM (inactive)
GI50 (SF-295): > 100 µM (inactive)
GI50 (HCT-116): > 100 µM (inactive)
GI50 (Hs-578T): > 100 µM (inactive)
GI50 (T47D): > 100 µM (inactive)
GI50 (OVCAR-5): > 100 µM (inactive)
GI50 (SK-MEL-2): > 100 µM (inactive)
GI50 (NCI-H226): > 100 µM (inactive)
GI50 (NCI/ADR-RES): > 100 µM (inactive)
GI50 (BT-549): > 100 µM (inactive)
GI50 (DU-145): > 100 µM (inactive)
GI50 (MDA-MB-435): > 100 µM (inactive)
GI50 (K562): > 100 µM (inactive)
GI50 (KM12): > 100 µM (inactive)
GI50 (SF-539): > 100 µM (inactive)
GI50 (A498): > 100 µM (inactive)
GI50 (RPMI-8226): > 100 µM (inactive)
GI50 (SK-OV-3): > 100 µM (inactive)
